The source of these data is patent US7888504B2, “Glucokinase activators and methods of using same” (Bristol-Myers Squibb Company, priority 2006, dated 2011).

The target of one test is T1, Human Glucokinase (Homo sapiens, UniProt P35557).
T1 construct: Full-length human hepatic GK (untagged); made in house; host or cells: E. coli BL21 STAR (DE3)pLysS
T1 sequence (P35557 1-466 isoform P35557-2): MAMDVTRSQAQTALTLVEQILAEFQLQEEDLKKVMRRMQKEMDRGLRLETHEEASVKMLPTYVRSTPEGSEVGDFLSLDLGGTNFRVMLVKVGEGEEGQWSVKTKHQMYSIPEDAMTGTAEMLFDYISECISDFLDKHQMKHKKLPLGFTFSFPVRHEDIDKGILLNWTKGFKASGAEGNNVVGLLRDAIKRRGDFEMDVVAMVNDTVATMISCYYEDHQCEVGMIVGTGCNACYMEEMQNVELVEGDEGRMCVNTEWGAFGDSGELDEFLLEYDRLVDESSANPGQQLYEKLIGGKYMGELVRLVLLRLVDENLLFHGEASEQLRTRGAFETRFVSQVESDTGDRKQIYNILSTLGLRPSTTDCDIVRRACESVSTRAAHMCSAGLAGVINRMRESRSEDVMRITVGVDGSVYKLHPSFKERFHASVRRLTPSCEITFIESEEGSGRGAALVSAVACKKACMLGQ
Description: tandem Glucokinase activation assay (uncoupled). To be noted: 12 mM glucose; human full-length GK 15 nM. In kind it is biochemical. The protocol:
A tandem Glucokinase activation assay (uncoupled) was used to assess the activity of glucokinase (GK) in the presence of GK activator compounds. The below-described tandem assay protocol was followed using a range of activator compound concentrations from 0 to 100 µM at 5 and 12 mM concentrations of glucose. Human full-length GK (15 nM) was incubated with 5 or 12 mM glucose in 384 well black microtiter plates with a clear bottom. To initiate the GK reaction, magnesium-ATP (3 mM final concentration) was added to the protein in buffer, under the final buffer conditions of 25 mM HEPES buffer, pH 7.1, containing 1 mM DTT (dithiothreitol) and […]. The total reaction volume was 20 μL. The reaction was allowed to proceed for ten minutes and was then quenched with 5 μL EDTA (ethylenediamine tetra-acetic acid; 45 mM final). The components of the detection reaction, ThioNAD (thio-nicotinamide adenine dinucleotide) and G6PDH (glucose-6-phosphate dehydrogenase) (final concentrations of 650 μM and 3.33 Units, respectively), were then added together in a volume of 25 μL, and a total volume of 50 μL. Absorbance was read and activation calculated as a percentage of background activity, ie., GK in the presence of DMSO, with background glucose-6-phosphate subtracted. Absorbance measurements were made at 405 nm on a Spectramax Plus 384 absorbance plate reader (Molecular Devices). Background glucose-6-phosphate was determined by pre-quenching GK with EDTA prior to reaction initiation with ATP.
Expression and Purification of Human GK
Full-length human hepatic GK (untagged) as expressed in BL21 STAR (DE3)pLysS cells (Invitrogen) at 25° C. as described by Mookhtiar et al.^1 The protein was purified essentially as described by Lange^2 with a slight modification. Cell pellets were lysed via three rounds of freezing and thawing, centrifuged at 15000 g for clarification, and precipitated with 40-65% (NH4)2SO4. The resulting pellet was re-suspended in buffer dialyzed, and applied directly to a Q-Sepharose (Sigma) column followed by elution with a linear 100-600 mM KCl gradient. GK containing fractions were pooled, dialyzed overnight vs. 25 mM HEPES pH 7.2/1 mM MgCl2/1 mM EDTA/0.1 M KCl/1 mM DTT, then dialyzed again with the same buffer with 10% glycerol added. ^1Mookhtiar, K. A., Kalinowski, S. S., Brown, K. S., Tsay, Y. H., Smith-Monroy, C., and Robinson, G. W. (1996) “Heterologous expression and characterization of rat liver glucokinase regulatory protein”, Diabetes 45:1670-1677.^2Lange, A. J., Xu, L. Z., Van Poelwijk, F., Lin, K., Granner, D. K., and Pilkis, S. J. (1991) “Expression and site-directed mutagenesis of hepatic glucokinase”, Biochem. J., 277:159-163.
For the compound `CS(=O)(=O)c1ccc([C@@H](CC2CCCC2)C(=O)Nc2ncc(Oc3ccc(C#N)cc3)s2)cc1` [Example 20], the 50% effective concentration (EC50) (usually the concentration at which the effect is half-maximal) came out at 8700 nM.

The compound `CS(=O)(=O)c1ccc([C@@H](CC2CCCC2)C(=O)Nc2ncc(Oc3cccc(C(N)=O)c3)s2)cc1` [Example 21] displayed a half-maximal effective concentration (EC50) of 858 nM. Still for that read-out and setting: then `O=C(Nc1ncc(Oc2cccc(C(=O)N3CC(O)C3)c2)s1)[C@H](CC1CCOCC1)c1ccc(S(=O)(=O)C2CC2)cc1` [Example 19], with 38 nM; and `CS(=O)(=O)c1ccc([C@@H](CC2CCCC2)C(=O)Nc2ncc(Oc3cncc(C(=O)O)c3)s2)cc1` [Example 8], with 753 nM. Same read-out and setting: then `CS(=O)(=O)c1ccc([C@@H](CC2CCCC2)C(=O)Nc2ncc(Oc3ccccc3C(N)=O)s2)cc1` [Example 24], with 3960 nM; and `O=C(Nc1ncc(Oc2cccc(C(=O)N3CCC3)c2)s1)[C@H](CC1CCOCC1)c1ccc(S(=O)(=O)C2CC2)cc1` [Example 18], with 39 nM.

The next test deals with DIO mice. Description: Oral glucose tolerance test (OGTT) in DIO mice. It is filed as in vivo. To be noted: male DIO C57BL/6J mice, 60 mg/kg oral, given 60 min before 2 g/kg glucose, ΔAUC 0-120 min. The protocol: In Vivo Studies: Oral Glucose Tolerance Test (OGTT)
Oral glucose tolerance tests were carried out on male DIO (diet-induced obese C57BL/6J mice fed a high fat diet (60% kcal from fat) for 26 weeks prior to experimentation. Mice were fasted overnight before use for experiments. A test compound or vehicle (10% dimethyl acetamide+10% ethanol+10% Cremophore+70% water) was given orally 60 min before oral administration of a glucose solution at a dose of 2 g/kg body weight (oral glucose tolerance test; OGTT). Blood glucose levels were measured from tail-bled samples taken at different time points before and after administration of glucose (time course of 2 hours). A time curve of the blood glucose was generated and the change from baseline area-under-the curve (ΔAUC) from 0-120 min was calculated (the time glucose administration being time zero).
For `CS(=O)(=O)c1ccc([C@@H](CC2CCCC2)C(=O)Nc2ncc(Oc3ccc(C(=O)O)cc3)s2)cc1` [Example 9], the “reduction of glucose AUC levels in an OGTT” value is given as 37%.
